The text below walks through data of paper PMC4830886, “Extended evaluation on the ES-D3 cell differentiation assay combined with the BeWo transport model, to predict relative developmental toxicity of triazole compounds” (Archives of Toxicology, 2015).

In this data set the test system is ES-D3 cells. In words: ES-D3 cell differentiation assay (differentiation into contracting cardiomyocytes). It counts as cell-based, mouse. The conditions noted are these: for Corrected BMCd50: BMCd50 divided by relative Papp value (BeWo model); for IC50: Mus musculus, Cardiomyocyte, 240 h, concentration for 50 % reduction in number of differentiated EBs, BMD modelling, day 10, read-out: BMCd50. On the procedure:
The murine ES-D3 cell line was purchased from ATCC (Wesel, Germany). The cells were maintained in polystyrene cell culture flasks (Corning, The Netherlands) in Dulbecco’s modified Eagle’s medium (DMEM, Invitrogen, Breda, The Netherlands), supplemented with 20 % heat-inactivated fetal calf serum (Lonza, BioWhittaker, Verviers, Belgium), 50 U/ml penicillin with 50 μg/ml streptomycin (Invitrogen), 2 mM L-glutamine (Invitrogen), 0.1 mM β-mercaptoethanol (Sigma-Aldrich) and 1 % (v/v) nonessential amino acids (Invitrogen), at 37 °C and 5 % CO2 in a humidified atmosphere. Cells were kept undifferentiated with 1000 U/ml murine leukemia inhibiting factor (LIF) (Sigma-Aldrich) and subcultured every 2–3 days using nonenzymatic cell dissociation solution (Sigma-Aldrich) to detach the cells.
Differentiation assays were carried out to detect the effect of test compounds on the differentiation of ES-D3 cells into contracting cardiomyocytes using culture medium in the absence of LIF. On day 1, droplets of 20 μl cell suspension (3.75 × 10^4 cells/ml) were placed as hanging drops, to which the test compounds 0594, 0595, 0596, 0599, 0600 and 0618 were added at concentrations ranging from 0.2 to 60 μM (final solvent concentration 0.2 % DMSO), on the inner side of the lid of a 96-well plate. Sterile lids of Eppendorf tubes were placed on the corner wells of the plates to prevent contact of the drops with the plate. The wells of the 96-well plate were filled with 250 μl phosphate buffered saline (PBS) (Invitrogen), and the plate was sealed with Micropore tape (3M, Neuss, Germany) to prevent evaporation of the hanging drops. Plates were incubated for 3 days at 37 °C and 5 % CO2 in a humidified atmosphere. In the drops, cells formed embryonic bodies (EBs), which were transferred to nontissue culture-treated Petri dishes (diameter 6 cm, Greiner) with 5 ml of medium with test compound. On day 5, the EBs were transferred to a 24-well plate (Corning) with 1 ml of medium with test compound, with one EB per well. On day 10, the number of wells containing contracting EBs was determined by visual inspection using a light microscope. Solvent control (0.2 % DMSO in culture medium) was included in each experiment. The solvent control was also used to assess the quality of the batch of ES-D3 cells used in each individual test (cells being randomly distributed over test groups and solvent control). Tests were accepted for further analysis if at least 21 of the 24 wells of the solvent control contained contracting cardiomyocytes. For each test compound, three independent assays were performed. The results were expressed as “fraction of total,” with 1.0 implying all EBs in one 24-well plate differentiated into contracting cardiomyocytes.
Different dichotomous concentration–response models were fitted to the in vitro developmental toxicity data obtained from the ES-D3 cell differentiation assay to calculate benchmark concentrations (BMC) using Environmental Protection Agency benchmark dose (BMD) software version 2.4. For each test compound, the BMCd50, representing the concentration for a 50 % reduction in the number of differentiated EBs, was derived. Models included in the evaluation were the gamma, logistic, loglogistic, probit, logprobit, multistage, weibull and the quantal-linear model. […] The lowest BMCd50 value was chosen from the accepted models.
To combine in vitro developmental toxicity data obtained from the ES-D3 cell differentiation assay with placental transfer data obtained from the BeWo transport model, a corrected BMCd50 value was calculated by dividing the BMCd50 values by the relative Papp values, as described in Li et al. ([2015]).

As to `CC(c1nc(-c2ccc(C#N)cc2)cs1)C(O)(Cn1cncn1)c1ccc(F)cc1` (stereo not shown) [compound 0596, 4-{2-[2-(4-Fluoro-phenyl)-2-hydroxy-1-methyl-3-[1,2,4]triazol-1-yl-propyl]-thiazol-4-yl}-benzonitrile], the “Corrected BMCd50” value is 18.1 µM and the IC50 was 11.4 µM.

Regarding `CC1CC(C)OC(Cn2cncn2)(c2ccc(Oc3ccc(Cl)cc3)cc2Cl)O1` (stereo not shown) [compound 0600, 1-[[2-[2-Chloro-4-(4-chlorophenoxy)phenyl]-4,6-dimethyl-1,3-dioxan-2-yl]methyl]-1,2,4-triazole], the “Corrected BMCd50” value was 21.0 µM and the IC50 worked out at 4.2 µM.

Take `OC(c1cccnc1)c1c(-c2ccc(F)cc2F)noc1-c1ccc(Cl)cc1F` (stereo not shown) [compound 0594, [5-(4-Chloro-2-fluoro-phenyl)-3-(2,4-difluoro-phenyl)-isoxazol-4-yl]-pyridin-3-yl-methanol]: the “Corrected BMCd50” value is 23.3 µM and the IC50 was found to be 6.9 µM.

`CC(c1nc(-c2ccc(C#N)cc2)cs1)C(O)(Cn1ccnc1)c1ccc(F)cc1` (stereo not shown) [compound 0599, 4-[2-[2-(4-Fluorophenyl)-2-hydroxy-3-imidazol-1-yl-1-methyl-propyl]thiazol-4-yl]benzonitrile]: the “Corrected BMCd50” value was found to be 3.8 µM and the IC50 is 1.8 µM.

For `OC(c1cccnc1)c1c(-c2ccc(F)cc2F)csc1-c1ccc(F)cc1F` (stereo not shown) [compound 0595, [2,4-Bis-(2,4-difluoro-phenyl)-thiophen-3-yl]-pyridin-3-yl-methanol], the “Corrected BMCd50” value is 141.8 µM and the IC50 is 11 µM.
